Assay results published in the supplement of paper PMC11451515.

Test system: P12-Ichikawa
Assay: cell viability relative to DMSO control; higher = less cytotoxic
Conditions: 48 h
How it was run: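 Viability was expressed as a per-plate percentage of DMSO wells, with cell-free wells as background. Leukemia cells (NOMO1 or SEM at 500 cells/well, P12-Ichikawa at 1000 cells/well) were adapted for at least four passages in each medium and seeded in 1536-well plates (5 μl). Library compounds in DMSO were pin-dosed over an 11-point threefold series from 47 μM to 0.79 nM, and CellTiter-Glo One luminescence was read after 48 h at 37°C.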

[1] = HPLM + 10% dialyzed FBS, 0.000781 µM
[2] = HPLM + 10% dialyzed FBS, 0.00234 µM
[3] = HPLM + 10% dialyzed FBS, 0.00702 µM
[4] = HPLM + 10% dialyzed FBS, 0.0211 µM
[5] = HPLM + 10% dialyzed FBS, 0.0632 µM
[6] = HPLM + 10% dialyzed FBS, 0.19 µM
[7] = HPLM + 10% dialyzed FBS, 0.569 µM
[8] = HPLM + 10% dialyzed FBS, 1.71 µM
[9] = HPLM + 10% dialyzed FBS, 5.12 µM
[10] = HPLM + 10% dialyzed FBS, 15.4 µM
[11] = HPLM + 10% dialyzed FBS, 46.1 µM
[12] = RPMI 5 mM glucose + 10% FBS, 0.000781 µM
[13] = RPMI 5 mM glucose + 10% FBS, 0.00234 µM
[14] = RPMI 5 mM glucose + 10% FBS, 0.00702 µM
[15] = RPMI 5 mM glucose + 10% FBS, 0.0211 µM
[16] = RPMI 5 mM glucose + 10% FBS, 0.0632 µM
[17] = RPMI 5 mM glucose + 10% FBS, 0.19 µM
[18] = RPMI 5 mM glucose + 10% FBS, 0.569 µM
[19] = RPMI 5 mM glucose + 10% FBS, 1.71 µM
[20] = RPMI 5 mM glucose + 10% FBS, 5.12 µM
[21] = RPMI 5 mM glucose + 10% FBS, 15.4 µM
[22] = RPMI 5 mM glucose + 10% FBS, 46.1 µM
[23] = RPMI 5 mM glucose + 10% dialyzed FBS, 0.000781 µM
[24] = RPMI 5 mM glucose + 10% dialyzed FBS, 0.00234 µM
[25] = RPMI 5 mM glucose + 10% dialyzed FBS, 0.00702 µM
[26] = RPMI 5 mM glucose + 10% dialyzed FBS, 0.0211 µM
[27] = RPMI 5 mM glucose + 10% dialyzed FBS, 0.0632 µM
[28] = RPMI 5 mM glucose + 10% dialyzed FBS, 0.19 µM
[29] = RPMI 5 mM glucose + 10% dialyzed FBS, 0.569 µM
[30] = RPMI 5 mM glucose + 10% dialyzed FBS, 1.71 µM
[31] = RPMI 5 mM glucose + 10% dialyzed FBS, 5.12 µM
[32] = RPMI 5 mM glucose + 10% dialyzed FBS, 15.4 µM
[33] = RPMI 5 mM glucose + 10% dialyzed FBS, 46.1 µM

Row | Structure (SMILES) | cell viability [1] | cell viability [2] | cell viability [3] | cell viability [4] | cell viability [5] | cell viability [6] | cell viability [7] | cell viability [8] | cell viability [9] | cell viability [10] | cell viability [11] | cell viability [12] | cell viability [13] | cell viability [14] | cell viability [15] | cell viability [16] | cell viability [17] | cell viability [18] | cell viability [19] | cell viability [20] | cell viability [21] | cell viability [22] | cell viability [23] | cell viability [24] | cell viability [25] | cell viability [26] | cell viability [27] | cell viability [28] | cell viability [29] | cell viability [30] | cell viability [31] | cell viability [32] | cell viability [33]
1 | Cc1c(NC(=O)OC[C@@H]2COCCN2)cn2ncnc(Nc3ccc4c(cnn4Cc4cccc(F)c4)c3)c12 | 80% | 83.9% | 91.5% | 90% | 94.8% | 96.5% | 99.8% | 94.3% | 86.8% | 87.8% | 50.6% | 83% | 84.4% | 90.8% | 87.9% | 92.9% | 85.8% | 86% | 92.2% | 76.6% | 81.3% | 48.3% | 83.4% | 84.4% | 88.9% | 97.3% | 100% | 88.1% | 89.2% | 92.9% | 91.3% | 82.8% | 40.4%
2 | Cc1cn([C@@H]2O[C@H](CO)[C@@H](O)[C@@H]2F)c(=O)[nH]c1=O | 103% | 112% | 116% | 122% | 116% | 122% | 132% | 124% | 126% | 122% | 123% | 101% | 115% | 116% | 120% | 124% | 127% | 119% | 129% | 130% | 123% | 17.6% | 97% | 110% | 111% | 113% | 121% | 126% | 121% | 123% | 123% | 127% | 64.6%
3 | CCn1c(-c2nonc2N)nc2cnc(Oc3cccc(NC(=O)c4ccc(OCCN5CCOCC5)cc4)c3)cc21 | 110% | 107% | 111% | 111% | 112% | 109% | 112% | 116% | 94.9% | 77% | 70.1% | 106% | 122% | 107% | 115% | 107% | 113% | 98.5% | 102% | 89.5% | 66.3% | 55.4% | 104% | 116% | 127% | 117% | 115% | 124% | 117% | 102% | 102% | 74.9% | 69.5%
4 | CNC(=O)c1ccc(N2C(=S)N(c3ccc(C#N)c(C(F)(F)F)c3)C(=O)C23CCC3)cc1F | 86.5% | 92.3% | 101% | 9.68% | 108% | 101% | 97% | 103% | 103% | 107% | 102% | 88% | 86.8% | 101% | 13.1% | 94.9% | 98% | 102% | 99.6% | 99.3% | 103% | 106% | 75.4% | 87.7% | 88.6% | 24.7% | 97.7% | 96.6% | 92.7% | 91% | 97.8% | 96.7% | 98.5%
5 | C/C=C1\C2C=C(C)CC1(N)c1ccc(=O)[nH]c1C2 (configuration not stated) | 102% | 108% | 107% | 107% | 109% | 109% | 107% | 104% | 96.3% | 106% | 79.2% | 105% | 110% | 112% | 106% | 113% | 101% | 98.3% | 91.2% | 98.9% | 98.7% | 92.8% | 110% | 98% | 108% | 102% | 94.9% | 107% | 98.4% | 97.1% | 88.5% | 95.2% | 90.9%
6 | CC(C)(C)c1[nH]cnc1/C=c1\[nH]c(=O)/c(=C/c2ccccc2)[nH]c1=O | 115% | 80% | 22.5% | 18.4% | 12% | 9.79% | 7.81% | 3.5% | 2.31% | 2.32% | 2.23% | 100% | 97% | 16.3% | 26.5% | 17.8% | 8.22% | 5.98% | 3.28% | 2.14% | 1.52% | 1.95% | 103% | 110% | 32.7% | 36.8% | 25% | 15.7% | 14.2% | 4.42% | 4.87% | 2.24% | 2.04%
7 | O=C(c1ccc(Nc2nccc(-c3cc4ccccc4s3)n2)cc1)N1CCC(N2CCCC2)CC1 | 115% | 109% | 116% | 112% | 120% | 107% | 103% | 98.8% | 99.5% | 67.7% | 3.26% | 117% | 125% | 119% | 117% | 114% | 107% | 112% | 112% | 105% | 82.9% | 6.91% | 113% | 119% | 115% | 119% | 123% | 106% | 113% | 107% | 101% | 63.8% | 7%
8 | Cc1cnc(-c2cc(N3CCN(C(=O)CC[S+](C)(=O)[O-])CC3)ncc2Cl)c(C)c1 | 117% | 116% | 114% | 130% | 124% | 131% | 126% | 122% | 130% | 128% | 128% |  |  |  |  |  |  |  |  |  |  |  |  |  |  |  |  |  |  |  |  |  | 
